Like-named read-outs stand apart in the source and are kept apart here.
Columns and labels:
[1] = target: T1, glomerular TxA2 synthase (Rattus norvegicus, UniProt P49430); test: in vitro TxA2 synthase inhibiting activity in isolated glomeruli (TxB2 by RIA); format: biochemical
T1 construct: from tissue; host or cells: isolated glomeruli of rat kidney (remnant kidney and sham operated rats)
T1 sequence (P49430 1-533): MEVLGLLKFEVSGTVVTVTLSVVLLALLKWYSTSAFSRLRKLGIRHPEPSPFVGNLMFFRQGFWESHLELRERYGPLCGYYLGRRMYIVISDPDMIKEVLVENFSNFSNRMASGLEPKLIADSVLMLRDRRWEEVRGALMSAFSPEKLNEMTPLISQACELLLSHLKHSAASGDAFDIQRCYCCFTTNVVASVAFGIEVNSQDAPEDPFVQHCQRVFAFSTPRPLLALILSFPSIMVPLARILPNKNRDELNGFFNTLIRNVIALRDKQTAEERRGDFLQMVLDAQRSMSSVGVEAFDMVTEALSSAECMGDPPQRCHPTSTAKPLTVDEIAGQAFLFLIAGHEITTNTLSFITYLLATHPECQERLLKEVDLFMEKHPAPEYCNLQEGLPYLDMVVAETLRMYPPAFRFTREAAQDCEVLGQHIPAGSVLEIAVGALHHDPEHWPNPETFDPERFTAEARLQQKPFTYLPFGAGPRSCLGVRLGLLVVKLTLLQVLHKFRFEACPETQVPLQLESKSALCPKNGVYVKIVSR
Experimental: (§1) Charles River C.D. male rats of 6 weeks of age were used for this experiment. […] Four weeks after the second operation the blood pressure was measured and the rats were placed in metabolic cages for evaluation of proteinuria, measured by the method of Lowry. Only the animals with a blood pressure ≥170 mm Hg and an urinary protein excretion ≥100 mg/day were used. Comparative experiments were performed using sham operated rats. Also the in vitro TxA2 synthase inhibiting activities in serum and in isolated glomeruli were studied and compared. Glomerula preparation was performed according to the method previously described and TxB2 was measured by RIA.

[2] = target: T2, serum TxA2 synthase (Rattus norvegicus, UniProt P49430); test: in vitro TxA2 synthase inhibiting activity in serum (TxB2 by RIA); format: biochemical
T2 construct: from tissue; host or cells: rat blood / serum (remnant kidney and sham operated rats)
T2 sequence (P49430 1-533): T1 sequence (P49430 1-533)
Experimental: as §1

[3] = tested on: doxorubicin induced nephrosis; test: doxorubicin induced nephrosis in rats (oral treatment); format: in vivo, rat; settings: 50 mg/kg b.i.d. oral
Experimental: The compound 1,2-dihydro-3-(1-imidazolyl)-6-carboxy-naphthalene (internal code FCE 22178) was orally administered, for doxorubicin induced nephrosis, to rats at a dosage of 50 mg/kg b.i.d. for 7 days starting from the 21st day after doxorubicin injection. A reduction in both proteinuria (from 1018±102 to 751±49 mg/24 h p<0.005) and creatinine serum levels (from 1.85±0.26 to 0.97±0.009 mg/dl p<0.001) was observed.
Moreover, in the spontaneous focal glomerulonephritis of the MNS rats, FCE 22178 was administered at the dosage of 50 mg/kg p.o. die+100 mg/kg/die in drinking water starting from the first month of age and all along the life of the animal and in comparison with a not treated group.
Compound 1,2-dihydro-3-(1-imidazolyl)-6-carboxynaphthalene, internal code FCE 22178, for instance, in this model at the oral dosage of 50 mg/kg b.i.d. for 7 days starting from the 21st after doxorubicin injection lowered triglycerides serum levels from 783±152 to 481.8±84 mg/dl.

[4] = tested on: spontaneous focal glomerulonephritis of the MNS rats; test: spontaneous focal glomerulonephritis in Milan Normotensive Strain (MNS) rats; format: in vivo, rat
Experimental: Moreover, in the spontaneous focal glomerulonephritis of the MNS rats, FCE 22178 was administered at the […] not treated group.
Sclerotic glomeruli show massive deposition of PAS-stained material.
Flattening and fusion of the foot processes, as well as formation of blebs and of electron dense lysosomes, together with the frequent detachment of the cell from the GMB is regarded to be related to the massive leakage of proteins through the glomerulus.

[5] = glomeruli of RRM (remnant kidney) rats, read-out: IC50, glomerular TxB2 production
[6] = serum of RRM (remnant kidney) rats, read-out: IC50, serum TxB2 production / TxA2 synthesis

SMILES: Cl.O.O=C(O)/C=C/c1ccc(Cn2ccnc2)cc1 [OKYO46, (E)-3-[4-(1H-imidazol-1-ylmethyl)-phenyl]-2-propenoic acid monohydrochloride monohydrate, reference compound]
- selectivity glomeruli vs serum ([1]; control sham operated rats): losed his selectivity
- IC50 [1, 5]: 0.09 nM
- IC50 ([1]; glomeruli of control sham operated rats, read-out: IC50, glomeruli): 1 nM
- IC50 [2, 6]: 0.6 nM
- IC50 ([2]; serum of control sham operated rats, read-out: IC50, serum): 50000 nM

SMILES: O=C(O)c1ccc2c(c1)C=C(n1ccnc1)CC2 [FCE 22178, 1,2-dihydro-3-(1-imidazolyl)-6-carboxynaphthalene]
- creatinine serum levels ([3]; 7 days from 21st day after doxorubicin, from 1.85±0.26, p<0.001): 0.97 ± 0.009 mg/dL
- triglycerides serum levels ([3]; 7 days from 21st day after doxorubicin, from 783±152): 481.8 ± 84 mg/dL
- proteinuria ([3]; 7 days from 21st day after doxorubicin, from 1018±102, p<0.005): 751±49 mg/24 h
- urine TxB2 levels ([3]; 7 days, from 20.3±2.5 ng/24 h): under the detection limit of the method
- serum TxB2 levels ([3]; 7 days, from 536±55 ng/ml): 92 ± 8.3 ng/mL
- production of TxA2 (measured as TxB2 levels) in isolated glomeruli ([4]; 50 mg/kg p.o. die + 100 mg/kg/die in drinking water from first month of age, untreated 4.44±1.2 at 8 months, p<0.01): 2.77±0.53 ng/mg prot.
- TxB2 in urine ([4]; 50 mg/kg p.o. die + 100 mg/kg/die in drinking water, pattern as in isolated glomeruli (greatly reduced)): The same pattern was observed in urine
- total cholesterol ([4]; 14 months old rats treated for 2 months, from 223±36): 130.5 ± 12.2 mg/dL
- phospholipids ([4]; 14 months old rats treated for 2 months, from 338.6±56): 197.8 ± 21 mg/dL
- triglycerides ([4]; 14 months old rats treated for 2 months, from 399.6±105): 169.3 ± 26.1 mg/dL
- glomerular filtration rate (GFR) ([4]; adult MNS rats, 50 mg/kg p.o. die + 100 mg/kg/die in drinking water, printed: 1210±38 in controls vs treated, p<0.01): 816±45 μl/min/g k.w.
- proteinuria ([4]; adult MNS rats, 50 mg/kg p.o. die + 100 mg/kg/die in drinking water, vs 428.8±42.3 in controls, p<0.01): 237±30.3 mg/24 h
- number of sclerotic glomeruli ([4]; light microscopy, aged (14 months) MNS rats, control 27%, p<0.05): 22%
- entity of flattening and fusion of foot processes in non sclerotic glomeruli ([4]; ultrastructural investigation, treated vs untreated MNS rats): definitly lower in treated animals
- selectivity for glomerular TxA2 synthase (vs serum) ([1]; RRM rats, compared to OKYO46): greater selectivity for glomerular TxA2 synthase
- IC50 [1, 5]: 0.032 nM
- IC50 ([1]; glomeruli of control sham operated rats, read-out: IC5 (so in the source), glomeruli): 0.07 nM
- IC50 [2, 6]: 1.7 nM
- IC50 ([2]; serum of control sham operated rats, read-out: IC5 (so in the source), serum): 1 nM

— patent publication US4882347A, “"N-imidazolyl derivatives of bicyclic compounds and pharmaceutical compositions containing the same"” (Farmitalia Carlo Erba, S.r.l., priority 1987, dated 1989)
